Test results published in patent US20080275002A1, “Method for Treatment of Hepatic Cancer” (TAIHO PHARMACEUTICAL CO., LTD., priority 2005, published 2008).

Assays:
[1] = test system: advanced hepatocellular carcinoma; experiment: Clinical study (Phase I/II) of oral TAC-101 in patients with advanced hepatocellular carcinoma; format: in vivo
Excerpt: Administrations were continued for patients without dose-limiting toxicities (DLT) and without aggravation of the cancer. […] Patients administered with the recommended dose in Phase I part were subjected to data analysis under assumption as Phase II part patients.
Specifically, after determination of the measurable lesions in each patient, the response was classified as complete response (CR), partial response (PR), minor response (MR), stabilization of the disease (SD), or progression of the disease (PD) for the efficacy evaluation.

[2] = test system: lung cancer; conditions: high dose, 60 to 80 mg/day, patients with lung cancer; cited from earlier work
[3] = test system: hepatic cancer; conditions: animal model of hepatic cancer; cited from earlier work
[4] = molecular target: T1, retinoic acid receptor α (RAR-α) (Homo sapiens, UniProt P10276); conditions: activates transcription through the receptor; cited from earlier work
T1 sequence (P10276 1-462): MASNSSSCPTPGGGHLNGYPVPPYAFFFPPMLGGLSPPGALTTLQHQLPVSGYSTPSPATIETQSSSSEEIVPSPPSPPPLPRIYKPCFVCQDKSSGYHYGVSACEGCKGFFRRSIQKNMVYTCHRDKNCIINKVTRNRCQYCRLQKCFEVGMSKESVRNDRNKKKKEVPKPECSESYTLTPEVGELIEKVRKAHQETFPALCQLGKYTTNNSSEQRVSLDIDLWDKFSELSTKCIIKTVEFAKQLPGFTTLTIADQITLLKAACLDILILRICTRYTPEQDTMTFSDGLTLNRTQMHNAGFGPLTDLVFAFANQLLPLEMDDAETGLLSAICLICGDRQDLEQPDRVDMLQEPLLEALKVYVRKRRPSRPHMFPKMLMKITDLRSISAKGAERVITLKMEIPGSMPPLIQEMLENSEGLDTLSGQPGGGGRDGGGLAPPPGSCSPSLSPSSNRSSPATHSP

[5] = 20 mg/day, side effects approximately grade 2

For `C[Si](C)(C)c1cc(C(=O)Nc2ccc(C(=O)O)cc2)cc([Si](C)(C)C)c1` [TAC-101, 4-[3,5-Bis(trimethylsilyl)benzamido]benzoic acid], the “therapy terminated because of grade 3 increase of aspartate aminotransferase (AST)” value ([1]; 20 mg/day) was “one”, the “therapy terminated because of onset of grade 3 venous thrombosis embolism (VTE)” value ([1]; 20 mg/day) was “one” and the “therapy terminated because of onset of grade 4 pulmonary embolism (PE)” value ([1]; 20 mg/day) was “one”. The “patients developing dose-limiting toxicity (DLT)” value ([1]; 20 mg/day oral, among 7 patients, pancreatitis and fatigue) was “one”, the “share of patients with TTF 12 weeks or longer” value ([1]; 20 mg/day, 9/21) was 42% and the “PR or CR case (WHO criteria)” value ([1]; 20 mg/day, 21 evaluable patients) was “not observed”. The “time to treatment failure (TTF)” value ([1]; 20 mg/day, all 21 patients) was 6.6 weeks, the “patients to whom four or more courses were applicable, progress of the hepatic cancer significantly arrested” value ([1]; 20 mg/day, of 21 evaluable patients) was 9 patients and the “patients with TTF 12 weeks or longer (progress arrested, no deterioration)” value ([1]; 20 mg/day, of 21 patients) was 9 patients. The “AST increase, incidence” value [1, 5] was 14.3%, the “AST increase, number of patients” value [1, 5] was 4 patients and the “alanine aminotransferase (ALT), incidence” value [1, 5] was 14.3%. For the same compound, the “alanine aminotransferase (ALT), number of patients” value [1, 5] was 4 patients, the “anorexia, incidence” value [1, 5] was 10.7% and the “anorexia, number of patients” value [1, 5] was 3 patients. For the same compound, the “dermatitis, incidence” value [1, 5] was 21.4%, the “dermatitis, number of patients” value [1, 5] was 6 patients and the “fatigue, incidence” value [1, 5] was 32%. For the same compound, the “fatigue, number of patients” value [1, 5] was 9 patients, the “increased triglycerides, incidence” value [1, 5] was 28.6% and the “increased triglycerides, number of patients” value [1, 5] was 8 patients. The “myalgias, incidence” value [1, 5] was 28.6%, the “myalgias, number of patients” value [1, 5] was 8 patients and the “nausea, incidence” value [1, 5] was 14.3%. For the same compound, the “nausea, number of patients” value [1, 5] was 4 patients, the “maximum tolerance dose (MTD)” value ([1]; 14 days daily oral administration, 7 days withdrawal) was 20 mg/day and the “deep vein thrombosis (DVT), dose-limiting toxicity” value [2] was “frequently induces deep vein thrombosis”. For the same compound, the tumor response [2] was “tumor reducing effects (PR and CR)”, the antitumor effects [3] was “demonstrated” and the “binding to RAR-α” value [4] was “binding selectively”.
